The values that follow come from patent US12215389B2, “Compositions for detecting epigenetic modifications” (EXACT SCIENCES CORPORATION, priority 2007, dated 2025).

The data set has as its system methylated gene promoters in FFPE tissue DNA. Description: Real-time MSP on colon tissue samples. To be noted: for Specificity (%) / Sensitivity (%): 50 cases (adenoma + carcinoma) vs 39 controls, tissue. On the set-up: species or system human. As for the experimental part: Real-time MSP was applied on a 7900HT fast real-time PCR system (Applied Biosystems). 2.4 μl of the modified DNA (equivalent to 2.5 μg unconverted DNA) was added to a PCR mix (total volume 12 μl) containing buffer (16.6 mM (NH4)2SO4, 67 mM Tris (pH 8.8), 6.7 mM MgCl2, 10 mM β-mercaptoethanol), dNTPs (5 mM), forward primer (6 ng), reverse primer (18 ng), molecular beacon (0.16 μM), BSA (0.1 μg), and Jumpstart DNA Taq polymerase (0.4 units; Sigma Aldrich). Cycle program used was as follows: 5 minutes 95° C., followed by 45 cycles of 30 seconds 95° C., 30 seconds 57° C. (51° C. for APC), and 30 seconds 72° C., followed by 5 minutes 72° C. A standard curve (2×106—20 copies) was included to determine copy numbers of unknown samples by interpolation of their Ct values to the standard curve.
Marker selection in colon tissue: Based on re-expression, 224 different gene assays representing 145 gene promotors were tested on the Base5 methylation profiling platform (data not shown, see reference 1 for details). The 37 most differentially methylated gene sequences assessing 29 gene promoters were validated on retrospectively collected tumors from 65 colorectal cancer patients (all stages) and 74 distant resection ends (histopathologically normal) using real-time MSP. Several markers reliably detected CRC in those tissue samples (data not shown). The results were confirmed on an independent test set containing 39 tissue controls (non-cancerous), 34 carcinomas and 16 adenomas. Several combinations of the tested markers reliably detected CRC with high specificity and sensitivity.
The ten best performing markers GATA5, GATA4, SFRP1, SFRP2, APC, MGMT, NDRG4, OSMR, JPH3 and ADAM23 were validated with primer sets and beacon probes as specified in Table 24. In addition to the colon test genes, the independent reference gene β-Actin (ACT) was also measured. The ratios between the colon test genes and ACT were calculated, and are the test result of the assay.
Marker candidates identified by re-expression were screened using 37 real-time methylation specific PCR (real-time MSP) assays. These assays were used to assess the methylation status of 29 gene promoters in 293 formalin-fixed paraffin-embedded (FFPE) tissue samples collected from various clinics. Samples included 99 carcinomas of various stages, 16 adenomas, 63 samples from patients with cancer other than CRC (20 breast [stages I-III], 22 bladder [stages I-III], 21 lung [stages I and II]), 39 samples from patients with no evidence of cancer and 76 distant resection ends (histopathologically normal) from CRC patients. These samples were divided into training and independent test sets, and used to select the gene methylation assays best able to discriminate between cancerous and non-cancerous samples. The training set included retrospectively collected tumors from 65 colorectal cancer patients (all stages) and 74 distant resection ends. Using the 10 best performing genes the results were confirmed on an independent test set containing 59 samples from patients with cancer other than CRC, 39 non-cancerous controls and 50 cancer cases (34 carcinomas and 16 adenomas).
The individual performance of the 10 best performing tissue markers OSMR, SFRP1, GATA4, SFRP2, NDRG4, ADAM23, GATA5, MGMT, APC and JPH3 is shown in FIG. 7, when the analytical cut-off was set to give 100% specificity, except for JPH3 where a specificity of 95% was obtained (based on the 39 non-cancerous controls). In addition to the colon test genes, the independent reference gene β-Actin (ACT) was also measured. The ratios between the colon test genes and ACT were calculated, and are the test result of the assay.

Setting [1] is: 16 adenoma tissue samples vs 39 controls.
The mark [2] stands for this setting: 34 carcinoma tissue samples vs 39 controls.
[3] abbreviates: second cut off ratio, between ( ).

Regarding “SFRP1 (DNA TGTAGTTTTCGGAGTTAGTGTCGCGC; listed as DNA, chemistry not given here)”, the “Specificity (%)” value is recorded as 100%. Further, under setting [1], the Sensitivity is recorded as 88% and the Specificity worked out at 100%. Besides, under setting [2], the Sensitivity came to 82% and the Specificity stood at 100%. Besides, the “Sensitivity (%)” value (first cut off ratio) stood at 84%. Also, under setting [3], the “Sensitivity (%)” value is listed as “(92) %”.
Consider “GATA5 (DNA AGTTCGTTTTTAGGTTAGTTTTCGGC; listed as DNA, chemistry not given here)”, for which the “Specificity (%)” value came out at 100%. Under setting [1], the Sensitivity amounted to 63% and the Specificity amounted to 100%. In addition, under setting [2], the Sensitivity stood at 53% and the Specificity came to 100%. For the same substance, the “Sensitivity (%)” value (first cut off ratio) is listed as 56%. Besides, under setting [3], the “Sensitivity (%)” value is “(66) %”.
